The values that follow come from a melting point compilation (Tetko et al.; mined from patent text by program, amines drawn as free bases though some values may be those of a salt).

In turn, `CC(C)(C)c1cc2ccccc2[nH]1` came in with a melting point of 71 to 72 °C.

`CC(C)c1csc(/C=C/c2cccc(OCCC(C)(C)C(=O)O)c2)n1` yielded a melting point of 112 to 113 °C.

For `Cc1cc([N+](=O)[O-])ccc1Oc1cncc(Cl)c1`, the melting point was in the range of 80 to 82 °C.

Regarding `CC(C(=O)N(C)c1ccccc1)n1c(-c2ccc(Cl)cc2)nc2cccnc21` (centres undefined), the melting point fell in the range of 174 to 177 °C.

With `COc1cc(C(=O)N(C)CC(CCN2CCC(C(=O)c3nc4ccccc4n3Cc3ccccn3)CC2)c2ccc(F)cc2)cc(OC)c1OC` (centres undefined), the melting point lay in the range of 30 to 35 °C.

The compound `O=C1Cc2ccccc2SN(CCO)C1` displayed a melting point of 173 to 175 °C.

`CC1CCCN1c1cc(F)cc(C(=O)Nc2ccc(OCCN3CCOCC3)c3ccccc23)c1` (centres undefined): the melting point is 108 to 111 °C.

Compound `O=C(Nc1ccc(F)cc1F)Oc1ccccc1` returned a melting point of 82 to 84 °C.

In the case of `COc1cc(C2=C(c3cn(CCCNC(=O)C(CC(C)C)NC(=O)OC(C)(C)C)c4ccccc34)C(=O)NC2=O)cc(OC)c1OC` (centres undefined), the melting point lay in the range of 140 to 142 °C.

With `COc1ccc2c(C(=O)O)cccc2c1`, the melting point came out at 180 °C.

For `CC[C@@]12C[C@@](C)(O)[C@](O)(c3ccccc3)C[C@H]1CCc1cc(OCC(=O)NCCCC#N)ccc12`, the melting point fell in the range of 185 to 186 °C.

Compound `CCCCCCCCCCCCCCCCCCOC(=O)C(NC(C)=O)C(=O)OC` (centres undefined) had a melting point of 75 to 77 °C.

In the case of `Cc1cccc(S(=O)(=O)N2CCn3c(c(C(N)=O)c(Cl)c3-c3ccccc3)C2)c1`, the melting point lay in the range of 165 to 167 °C.

The compound `CCN(CC)CCNC(=O)c1cccc2c(=O)c3ccc(I)cc3[nH]c12` registered a melting point of 208 to 210 °C.

`CCOC(=O)c1cnc2c([N+](=O)[O-])cc(CN3CCOCC3)cc2c1O`: the melting point fell in the range of 214 to 216 °C.

With `CC(=O)OC1COC(Oc2ccc(C(=S)c3ccc(C)cc3)cc2)C(OC(C)=O)C1OC(C)=O` (centres undefined), the melting point stood at 132 °C.

`OCc1nn(-c2ccc(Cl)cc2)c2c1CCCC2` yielded a melting point of 125 to 126 °C.

Regarding `CCc1cccc(N)c1C(=O)O`, the melting point was 99 to 104 °C.

Take `CC(C)C1(C)CC(=O)CC(C)(C)N1` (centres undefined): the melting point was 47 to 53 °C.

`CN(C)c1ccc(NC(=O)N(Cc2ccccc2)C[C@@H]2CCCC[C@H]2CN(Cc2ccccc2)C(=O)Nc2ccc(N(C)C)cc2)cc1` (relative stereo) had a melting point of 109 to 113 °C.

Consider `CCOC(=O)c1[nH]c2c(C)ccc(C)c2c1-c1ccccc1`, for which the melting point lay within 107 to 108 °C.

With `CCNC(=O)n1nc(Oc2c(Cl)cc(C(F)(F)F)cc2Cl)c(Cl)c1C`, the melting point fell in the range of 85 to 86 °C.

`CN(C)CCNC(=O)c1ccc(-c2cnc3c(c2)N(C(=O)c2ccccc2)CCN3)cc1` yielded a melting point of 145 to 147 °C.

For `Cc1cc(Cl)cc(C(=O)NC(C)CSC[Si](C)(C)C)c1NC(=O)c1cc(Br)nn1-c1ncccc1Cl` (centres undefined), the melting point is 151 to 153 °C.

`CC1(C)C=C(c2ccccn2)c2cc(Cl)c(Cl)cc2OC1` gave a melting point of 98 °C.

`Cc1cc(C(=O)N(O)C2CCCCC2)c(C)o1`: the melting point fell in the range of 135 to 137 °C.

In turn, `N#Cc1cnn(-c2c(Cl)cc(C(F)(F)F)cc2Cl)c1N` came in with a melting point of 165 to 167 °C.

In the case of `C=C(Cl)CC(C#N)(C#N)Cc1ccc(Cl)cc1`, the melting point amounted to 85.5 °C.

For the compound `Cc1cc(Cn2cc(C3c4ccccc4C=Cc4ccccc43)c(=S)[nH]c2=O)cc(C(=O)O)c1`, the melting point was above 240 °C.

`CC(=O)Nc1ccc(S(=O)(=O)NC(=N)c2cnccn2)cc1` showed a melting point of 270 to 274 °C.

With `CC(C)c1cccc(C(C)C)c1NC(=O)CNC(c1ccccc1)c1ccc(O)cc1` (centres undefined), the melting point was in the range of 190 to 192 °C.

Take `O=C(Cc1ccccc1)N1CC2COCC2C1` (centres undefined): the melting point is 47.5 to 48.5 °C.

Compound `CCOC(=O)C(C)(C)NC(=O)c1cccc(C2=NC(C)(C)Cc3cc(OC)c4c(c32)CC(C)(C)O4)c1` had a melting point of 114 to 115 °C.

Take `CC(C)(Cc1ccccc1)Oc1ccc([N+](=O)[O-])cc1`: the melting point lay in the range of 78 to 79 °C.

`CCOC(=O)C=Cc1cccc(N)c1` yielded a melting point of 84 to 85 °C.

For `O=C1CCC2N1CC(=O)N2c1ccccc1` (centres undefined), the melting point lay in the range of 185 to 188 °C.

Regarding `CS(=O)c1ccc(-n2cnc3ccc(-c4nnc(CCc5cccc(C#N)c5)o4)cc32)cc1` (centres undefined), the melting point lay in the range of 194 to 195 °C.

Regarding `CCCc1c(C(=O)C(C)C)c2ccc(CC(=O)O)cc2n1Cc1cc2c(cc1Cl)OCO2`, the melting point is 81 to 83 °C.

With `CCCn1c(=O)c2c(nc(C=Cc3cc(OC)c(OC)cc3S(=O)(=O)Nc3ccccc3)n2C)n(CCC)c1=O`, the melting point lay within 247 to 249 °C.

With `COC(=O)Cc1c(C)n(O)c(=O)c2ccccc12`, the melting point is 185 to 190 °C.

`CC1(C)OCC[C@@H]2[C@H](C(O)CBr)C(=O)N21` (some centres undefined) returned a melting point of 141 to 142 °C.

`O=C1c2ccc(Cl)cc2C(=O)N1c1ccccc1` yielded a melting point of 187 to 189 °C.

The compound `CN1C(=O)C(C)(C)C(=O)N(C)c2cc(C(=O)O)ccc21` had a melting point above 275 °C.

In turn, `C=CCOC(=O)c1[nH]c2cc(Cl)cc(Cl)c2c1C=C1NC(=O)N(c2ccccc2)C1=O` had a melting point above 250 °C.

In turn, `Cc1nc2ccc(N)cn2c(=O)c1CCCl` returned a melting point of 185 °C.

Consider `COc1cc(Sc2cc(F)cc(C3(OC)CCOCC3)c2)ccc1/C(C)=N/O`, for which the melting point is 155 °C.

`Cc1nc(NC(=O)c2cc(Cl)cc(Cl)c2)sc1C(=O)NCc1ccccc1`: the melting point lay in the range of 104 to 105 °C.

`Cc1ccc([N+](=O)[O-])cc1Nc1ncc(-c2ccc(C#N)cc2)o1` returned a melting point above 228 °C.

Take `N#CNC(=O)c1cc2cc(N3CCN(CCCCc4c[nH]c5ccc(C#N)cc45)CC3)ccc2o1`: the melting point amounted to 190 °C.

As for `N#CCCC=NNc1ccc(CS(N)(=O)=O)cc1`, the melting point was 175 to 176 °C.

`CCCN(CCC)CCCn1cc(Br)c2c3c(c(-c4ccccc4Cl)cc21)C(=O)NC3=O` registered a melting point of 173 to 175 °C.

With `COC(=O)CC1Cc2ccc(O)cc2NC1=O` (centres undefined), the melting point lay in the range of 178 to 180 °C.

For `NCCc1ccc(-n2nc(C(F)(F)F)cc2C(F)(F)F)cc1`, the melting point worked out at 54 °C.

As to `O=c1cc(Oc2ccccc2)c2cc(C(c3ccc(Cl)cc3)n3ccnc3)ccc2[nH]1` (centres undefined), the melting point turned out to be 233 °C.

The compound `CC12CCC(O)CC1=CCC1C2CCC2(C)C(n3cccn3)=CCC12` (centres undefined) registered a melting point of 197 to 199 °C.

`Cn1cc(C=CC(=O)NC2CC2)c([N+](=O)[O-])n1` came in with a melting point of 183 to 185 °C.

For the compound `CC(O)Cn1nc2c3c(cc([N+](=O)[O-])cc31)CCC2` (centres undefined), the melting point lay within 147 to 148 °C.

Turning to `Cc1c(-c2ccncc2)[nH]c(-c2ccncc2)c1C(=O)OC(C)(C)C`, the melting point was 265 to 267 °C.

Compound `CCOc1nn(-c2ccccn2)cc1CCCOc1cccc(CC(=O)O)c1` returned a melting point of 66 to 67 °C.

`CCOc1cc(N(CC)CC)ccc1C1(c2c(C)n(CC)c3ccccc23)OC(=O)c2ccccc21` (centres undefined) came in with a melting point of 193 °C.

Take `CCCOCCOc1ccc(COc2ccc3c(c2)C=C(C(=O)O)CCS3(=O)=O)cc1`: the melting point fell in the range of 244 to 250 °C.

Turning to `CCn1nc(-c2cccc(Cl)c2)c(C(C)=O)c(Nc2cccc3cnccc23)c1=O`, the melting point fell in the range of 189 to 191 °C.

`Nc1nc2c(Cc3ccsc3)c[nH]c2c(=O)[nH]1` showed a melting point of 222 to 224 °C.

In turn, `COc1ccc2nc(COc3ccc(CC(C(N)=O)S(C)(=O)=O)cc3)n(C)c2c1` (centres undefined) displayed a melting point of 233 to 236 °C.

On to `Brc1ccc(Cc2ccc(Br)cc2)cc1`, for which the melting point fell in the range of 62 to 62.5 °C.

As to `Nn1c(C(F)(F)F)cc(=O)n(-c2cc([N+](=O)[O-])c(Br)cc2F)c1=O`, the melting point came to 165 °C.

In the case of `CCCc1c(C2CCC(c3ccccc3)(N(C)C)CC2)[nH]c2ccccc12` (centres undefined), the melting point was 177 to 181 °C.

Consider `CN(C)CC=CC(=O)Nc1cc2c(Nc3cc(Cl)c(Cl)cc3F)ncnc2cc1OCCOCCOCCOCCF`, for which the melting point was 119 to 120 °C.

`O=C(O)Cn1cc(C(=O)O)c(=O)c2ccccc(=O)c21` showed a melting point above 250 °C.

As to `CCOC(=N)C1(O)CCc2ccccc21` (centres undefined), the melting point is below 20 °C.

In turn, `CCOC(=O)Nc1ccc(C(c2ccccc2)n2ccnc2)cc1CO` (centres undefined) came in with a melting point of 143 °C.

Compound `CNc1nccc(-c2c(-c3ccc(F)cc3)ccn2C2CCNCC2)n1` registered a melting point of 189 to 191 °C.

As to `COc1cccc(N2CCN(C[C@H](CC3CCCCC3)NC(=O)C3CCCCC3)CC2)n1`, the melting point lay in the range of 107 to 109 °C.

Take `Fc1ccc(Cn2c(NC3CCN(CCN(Cc4ccccc4)Cc4ccccc4)CC3)nc3ccccc32)cc1`: the melting point is 116 °C.

As for `Cc1ccc(S(=O)(=O)Cc2ccc([N+](=O)[O-])cc2)cc1`, the melting point is 188 to 190 °C.

Compound `OCCCSc1csc2ccccc12` displayed a melting point of 154 to 155 °C.

Consider `O=C(O)c1ccc(C#Cc2ccccc2F)o1`, for which the melting point lay in the range of 196 to 198 °C.

`Cc1c(OCCCCCCC(=O)N(CCO)C2CCCCC2)ccc2c1CN1CC(=O)NC1=N2` had a melting point of 148 to 150 °C.

In the case of `CON(C)C(=O)c1cc2c(Sc3ccc(C)cc3)cncc2s1`, the melting point was in the range of 103 to 107 °C.

In turn, `OCCN=Cc1ccc(Br)cc1` had a melting point of 79 to 81 °C.

`CN1CS(=O)c2ccccc21` (centres undefined) displayed a melting point of 70 to 73.5 °C.

As for `Cn1c(CNCC(C)(C)O)cc2cc(NC(=O)c3ccc(OCC4CCOC4)cc3)ccc21` (centres undefined), the melting point came out at 169 °C.

Regarding `CCOP(=O)(OCC)C(Sc1cc(C(C)(C)C)c(O)c(C(C)(C)C)c1)P(=O)(OCC)OCC`, the melting point was 78 to 80 °C.

For `COc1cc2oc(=O)c(CCCl)c(C)c2cc1O`, the melting point fell in the range of 230 to 235 °C.

`N#Cc1ccc(CCC(=O)c2ccc(C#N)cc2)cc1` yielded a melting point of 149 to 152 °C.

The compound `Nc1nc(Cl)nc2c1ncn2C1CCCCC1` came in with a melting point of 206 to 209 °C.

For `CCCCCCCCCCCCCCCCNC(=O)C=CC(=O)O`, the melting point was in the range of 46 to 49 °C.

Consider `COc1ccc(Br)c(COc2ccc3ccc(OC)cc3c2)c1`, for which the melting point is 156 to 157 °C.

`CS(=O)(=O)c1ccc(-c2cnn(-c3ccc(F)c(Cl)c3)c(=O)c2C2CCCCC2)cc1` had a melting point of 180 to 181 °C.
